Data: ChEMBL document CHEMBL5303573, “Mapping human microbiome drug metabolism by gut bacteria and their genes” (Nature, 2019)

Assays:
[1] = The drug is tested on Bifidobacterium longum subsp. Infantis strain: CCUG52486 for biotransformation. The drug concentrations were measured before and after a 12-h incubation by liquid-chromatography-coupled mass spectrometry (LC–MS); conditions: 2 µM
[2] = The drug is tested on Ruminococcus gnavus strain: ATCC29149 for biotransformation. The drug concentrations were measured before and after a 12-h incubation by liquid-chromatography-coupled mass spectrometry (LC–MS); conditions: mediterraneibacter gnavus, 2 µM
[3] = The drug is tested on Edwardsiella tarda strain: ATCC23685 for biotransformation. The drug concentrations were measured before and after a 12-h incubation by liquid-chromatography-coupled mass spectrometry (LC–MS); conditions: 2 µM
[4] = bifidobacterium adolescentis, 12 h, 2 µM
[5] = The drug is tested on Eubacterium hallii strain: DSM3353 for biotransformation. The drug concentrations were measured before and after a 12-h incubation by liquid-chromatography-coupled mass spectrometry (LC–MS); conditions: anaerobutyricum hallii, 2 µM
[6] = bacteroides fragilis, 12 h, 2 µM
[7] = The drug is tested on Bacteroides pectinophilus strain: ATCC43243 for biotransformation. The drug concentrations were measured before and after a 12-h incubation by liquid-chromatography-coupled mass spectrometry (LC–MS); conditions: 2 µM
[8] = The drug is tested on Providencia stuartii strain: ATCC25827 for biotransformation. The drug concentrations were measured before and after a 12-h incubation by liquid-chromatography-coupled mass spectrometry (LC–MS); conditions: 2 µM
[9] = bacteroides thetaiotaomicron, 12 h, 2 µM
[10] = The drug is tested on Collinsella intestinalis strain: DSM13280 for biotransformation. The drug concentrations were measured before and after a 12-h incubation by liquid-chromatography-coupled mass spectrometry (LC–MS); conditions: 2 µM
[11] = The drug is tested on Bifidobacterium breve strain: DSM20213 for biotransformation. The drug concentrations were measured before and after a 12-h incubation by liquid-chromatography-coupled mass spectrometry (LC–MS); conditions: 2 µM
[12] = bacteroides intestinalis, 12 h, 2 µM
[13] = The drug is tested on Bacteroides xylanisolvens strain: DSM18836 for biotransformation. The drug concentrations were measured before and after a 12-h incubation by liquid-chromatography-coupled mass spectrometry (LC–MS); conditions: 2 µM
[14] = The drug is tested on Bacteroides sp. WH2 strain: WH2 for biotransformation. The drug concentrations were measured before and after a 12-h incubation by liquid-chromatography-coupled mass spectrometry (LC–MS); conditions: bacteroides sp. wh2, 12 h, 2 µM
[15] = The drug is tested on Bacteroides fragilis strain: ATCC43859 for biotransformation. The drug concentrations were measured before and after a 12-h incubation by liquid-chromatography-coupled mass spectrometry (LC–MS); conditions: 2 µM
[16] = The drug is tested on Clostridium symbiosum strain: ATCC14940 for biotransformation. The drug concentrations were measured before and after a 12-h incubation by liquid-chromatography-coupled mass spectrometry (LC–MS); conditions: 2 µM
[17] = The drug is tested on Eubacterium ventriosum strain: ATCC27560 for biotransformation. The drug concentrations were measured before and after a 12-h incubation by liquid-chromatography-coupled mass spectrometry (LC–MS); assay type: ADME; set-up: dose 2 uM, timepoint 0 vs 12 hours; conditions: 2 µM
[18] = enterocloster bolteae, 12 h, 2 µM
Description: The drug is tested on Clostridium bolteae strain: ATCCBAA-613 for biotransformation. The drug concentrations were measured before and after a 12-h incubation by liquid-chromatography-coupled mass spectrometry (LC–MS)

[19] = bacteroides fragilis, 12 h, 2 µM; remark: listed apart in the source
Description: The drug is tested on Bacteroides fragilis strain: 3397 (T10) for biotransformation. The drug concentrations were measured before and after a 12-h incubation by liquid-chromatography-coupled mass spectrometry (LC–MS)

Row | SMILES | Bacterial Biotransformation [1] | Bacterial Biotransformation [2] | Bacterial Biotransformation [3] | Bacterial Biotransformation [4] | Bacterial Biotransformation [5] | Bacterial Biotransformation [6] | Bacterial Biotransformation [7] | Bacterial Biotransformation [8] | Bacterial Biotransformation [9] | Bacterial Biotransformation [10] | Bacterial Biotransformation [11] | Bacterial Biotransformation [12] | Bacterial Biotransformation [13] | Bacterial Biotransformation [14] | Bacterial Biotransformation [15] | Bacterial Biotransformation [16] | Bacterial Biotransformation [17] | Bacterial Biotransformation [18] | Bacterial Biotransformation [19]
1 | COc1ccc(CCN(C)CCCC(C#N)(c2ccc(OC)c(OC)c2)C(C)C)cc1OC (stereo not given) | Compound NOT metabolized | Compound NOT metabolized | Compound NOT metabolized | Compound NOT metabolized | Compound metabolized | Compound NOT metabolized | Compound NOT metabolized | Compound NOT metabolized | Compound metabolized | Compound NOT metabolized | Compound NOT metabolized | Compound metabolized | Compound metabolized | Compound NOT metabolized | Compound NOT metabolized |  |  |  | 
2 | Br.CN1CCC[C@@H]1Cc1c[nH]c2ccc(CCS(=O)(=O)c3ccccc3)cc12 [ELETRIPTAN HYDROBROMIDE] | Compound NOT metabolized | Compound NOT metabolized | Compound NOT metabolized | Compound NOT metabolized | Compound NOT metabolized | Compound NOT metabolized | Compound NOT metabolized | Compound NOT metabolized |  | Compound NOT metabolized |  | Compound NOT metabolized | Compound NOT metabolized | Compound NOT metabolized | Compound NOT metabolized | Compound NOT metabolized | Compound NOT metabolized | Compound NOT metabolized | Compound NOT metabolized
3 | C[C@@H](CO)NC(=O)[C@@H]1C=C2c3cccc4[nH]cc(c34)C[C@H]2N(C)C1.O=C(O)/C=C\C(=O)O [ERGONOVINE MALEATE] | Compound metabolized |  | Compound NOT metabolized |  |  | Compound metabolized | Compound metabolized | Compound metabolized | Compound NOT metabolized |  |  | Compound metabolized | Compound metabolized | Compound metabolized | Compound metabolized | Compound metabolized | Compound NOT metabolized |  | Compound metabolized
4 | CC(C)OC(=O)C(C)(C)Oc1ccc(C(=O)c2ccc(Cl)cc2)cc1 [FENOFIBRATE] | Compound NOT metabolized |  | Compound NOT metabolized | Compound NOT metabolized | Compound NOT metabolized | Compound metabolized | Compound metabolized | Compound NOT metabolized | Compound NOT metabolized | Compound NOT metabolized |  | Compound NOT metabolized |  | Compound NOT metabolized | Compound NOT metabolized | Compound NOT metabolized |  | Compound NOT metabolized | Compound NOT metabolized
5 | CS(=O)(=O)O.OC(CCN1CCCCC1)(c1ccccc1)c1ccccc1 [PRIDINOL METHANESULFONATE] | Compound NOT metabolized | Compound NOT metabolized | Compound NOT metabolized | Compound NOT metabolized | Compound NOT metabolized | Compound NOT metabolized | Compound NOT metabolized | Compound NOT metabolized | Compound NOT metabolized | Compound NOT metabolized | Compound NOT metabolized | Compound NOT metabolized | Compound NOT metabolized | Compound NOT metabolized |  | Compound NOT metabolized | Compound NOT metabolized | Compound NOT metabolized | Compound NOT metabolized
6 | CCCN(CCC)CCc1cccc2c1CC(=O)N2 [ROPINIROLE] | Compound NOT metabolized | Compound NOT metabolized | Compound NOT metabolized | Compound NOT metabolized | Compound NOT metabolized | Compound NOT metabolized | Compound NOT metabolized | Compound NOT metabolized |  | Compound NOT metabolized | Compound NOT metabolized | Compound NOT metabolized | Compound NOT metabolized | Compound NOT metabolized | Compound NOT metabolized | Compound NOT metabolized | Compound NOT metabolized | Compound NOT metabolized | 
7 | CN[C@H]1CC[C@@H](c2ccc(Cl)c(Cl)c2)c2ccccc21 [SERTRALINE] | Compound NOT metabolized | Compound NOT metabolized | Compound NOT metabolized | Compound NOT metabolized | Compound NOT metabolized | Compound NOT metabolized | Compound NOT metabolized |  | Compound NOT metabolized | Compound NOT metabolized | Compound NOT metabolized | Compound NOT metabolized |  | Compound NOT metabolized | Compound NOT metabolized | Compound NOT metabolized |  |  | Compound NOT metabolized
8 | c1ccc2[nH]c(-c3cscn3)nc2c1 [THIABENDAZOLE] | Compound NOT metabolized | Compound NOT metabolized | Compound NOT metabolized | Compound NOT metabolized | Compound NOT metabolized |  | Compound NOT metabolized | Compound NOT metabolized |  | Compound NOT metabolized | Compound NOT metabolized | Compound NOT metabolized | Compound NOT metabolized | Compound NOT metabolized | Compound NOT metabolized | Compound NOT metabolized | Compound NOT metabolized | Compound NOT metabolized | Compound NOT metabolized
9 | CC(=O)CC(c1ccccc1)c1c(O)c2ccccc2oc1=O (stereo not given) [WARFARIN] | Compound NOT metabolized | Compound NOT metabolized | Compound NOT metabolized | Compound NOT metabolized | Compound NOT metabolized | Compound NOT metabolized | Compound NOT metabolized | Compound NOT metabolized | Compound NOT metabolized | Compound NOT metabolized | Compound NOT metabolized | Compound NOT metabolized |  | Compound NOT metabolized | Compound metabolized | Compound NOT metabolized | Compound NOT metabolized | Compound NOT metabolized | Compound NOT metabolized
